This note sets out measurements from patent US4910199A, “Imidazo[1,2-]pyridazines for cortical cholinergic deficiencies” (Sanofi, priority 1987, dated 1990).

Molecules are shown by their SMILES.

The test system of assay [1] is rotatory behavior induced by intrastriatal pirenzepine. The assay can be described thus: antagonism of rotatory behavior induced by intrastriatal injection of pirenzepine in mice. The note with it: Mus musculus, ip; 50% reduction in number of rotations; i.p. 15 minutes before pirenzepine 1 μg into right striatum. Format: in vivo, mouse (female, Swiss, CD 1). Here is the method:
The intrastriatal injection of PZ into mice induces rotatory behavior. The antagonism of this behavior by the products according to the invention was studied. The products according to the invention are injected intraperitoneally (i.p.) after solubilization in distilled water or suspension in a 5% solution of gum arabic. The control animals receive an injection of the pure solvent under the ssame conditions. The animals used are female mice (Swiss, CD 1, Charles River, France) with a body weight of between 25 and 30 grams. The pirenzepine is dissolved in a phosphate buffer and the pH of the solution is 6. The test products of their solvents are injected intraperitoneally in a volume of 0.4 ml per 20 g of body weight, 15 minutes before a direct injection of pirenzepine into the right striatum of the mouse at a dose of 1 μg in 1 μl of solvent, according to the method described by P. WORMS et al. in Eur. J. Pharmacol., 1986, 121, 395-401. The number of contralateral rotations (rotations in the opposite direction to the side injected) was counted for three 2-minute periods after injection of the pirenzepine: 2nd to 4th, 8th to 10th and 13th to 15th minutes. Each treatment consists of 3 to 4 doses with 10 animals per dose. The total number of rotations and the percentage antagonism with respect to the control group are calculated for each treatment. The 50% effective dose (ED50), i.e. the dose which causes a 50% reduction in the number of rotations induced by pirenzepine, is determined graphically for each product.

For assay [2], the target named is T1, M2-type muscarinic cholinergic receptor (Cavia porcellus, UniProt H0VRN8).
T1 construct: on a smooth guinea-pig ileum muscle homogenate; from tissue; host or cells: guinea-pig ileum smooth muscle homogenate
T1 sequence (H0VRN8 1-466): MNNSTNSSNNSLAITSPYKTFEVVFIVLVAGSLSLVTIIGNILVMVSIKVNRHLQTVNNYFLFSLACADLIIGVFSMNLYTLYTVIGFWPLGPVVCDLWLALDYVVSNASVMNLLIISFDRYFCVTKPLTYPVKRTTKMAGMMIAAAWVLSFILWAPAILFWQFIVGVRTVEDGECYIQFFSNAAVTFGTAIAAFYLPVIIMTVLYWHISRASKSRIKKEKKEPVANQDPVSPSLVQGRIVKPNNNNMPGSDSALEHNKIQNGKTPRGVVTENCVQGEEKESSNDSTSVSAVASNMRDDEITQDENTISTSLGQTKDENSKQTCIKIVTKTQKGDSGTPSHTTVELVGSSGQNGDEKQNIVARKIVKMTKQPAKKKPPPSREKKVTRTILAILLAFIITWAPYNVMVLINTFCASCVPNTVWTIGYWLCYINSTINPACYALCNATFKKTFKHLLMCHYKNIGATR
The assay can be described thus: affinity for the M2-type muscarinic cholinergic receptor ([3H]-N-methylscopolamine displacement, smooth guinea-pig ileum muscle homogenate). Format: binding. The note with it: [3H]-NMS 0.3 nM, 20 min at 30° C., pH 7.5. The method, then:
The M1 -type receptors are concentrated in certain regions of the brain, such as the hippocampus, the cerebral cortex and the striatum, and also in the sympathetic ganglia. These binding sites can be selectively labeled with [^3 H]-pirenzepine ([^3 H]-PZ). The M2 -type rreceptors predominate in the heart and the ileum and can be labeled with [^3 H]-N-methylscopolamine ([^3 H]-NMS). The selectivity of the compounds of the invention with respect to the M1 and M2 sites was determined by studying their in vitro interaction with [^3 H]-PZ and [^3 H]-NMS firmly bound with a high affinity to rat hippocampus membranes and smooth guinea-pig ileum muscle, respectively.
The interaction with the M2 -type muscarinic receptors was studied by in vitro measurement, on a smooth guinea-pig ileum muscle homogenate, of the displacement of tritiated N-methylscopolamine ([^3 H]-NMS) from its specific binding sites. Aliquots (50 μl) of a 0.625% (w/v) smooth guinea-pig ileum muscle homogenate in HEPES buffer (20 mM) containing NaCl (100 mM) and MgCl2 (10 mM) (final pH: 7.5) are incubated for 20 min at 30° C. in the presence of [^3 H]-NMS ([…]; final concentration 0.3 nM) and increasing concentrations of the test products. The final volume is 1 ml. The reaction is topped by centrifugation for 5 min at 15 000×g. The non-specific binding is determined in the presence of 10 μM atropine sulfate. (Ref.: R. Hammer, C. P. Berrie, N. I. M. Birdsall, A. S. V. Burgen and E. C. Hulme, Nature, 283, 90-92, 1980; E. C. Hulme, N. I. M. Birdsall, A. S. V. Burgen and P. Mettha, Mol. Pharmacol., 14, 737-750, 1978.)
Table 5 indicates the affinities of the products of the invention for the M1 and M2 receptors. The results are expressed as 50 percent inhibitory concentrations (IC50), i.e. the concentration (in μM) which induces the displacement of 50% of the tritiated ligand bound to the membrane receptors. The IC50 for ^3 H-pirenzepine displacement represents the affinity for the M1 receptor; The IC50 for ^3 H-NMS displacement represents the affinity for the M2 receptor.

For assay [3], the target named is T2, M1-type muscarinic cholinergic receptor (Rattus norvegicus, UniProt P08482).
T2 sequence (P08482 1-460): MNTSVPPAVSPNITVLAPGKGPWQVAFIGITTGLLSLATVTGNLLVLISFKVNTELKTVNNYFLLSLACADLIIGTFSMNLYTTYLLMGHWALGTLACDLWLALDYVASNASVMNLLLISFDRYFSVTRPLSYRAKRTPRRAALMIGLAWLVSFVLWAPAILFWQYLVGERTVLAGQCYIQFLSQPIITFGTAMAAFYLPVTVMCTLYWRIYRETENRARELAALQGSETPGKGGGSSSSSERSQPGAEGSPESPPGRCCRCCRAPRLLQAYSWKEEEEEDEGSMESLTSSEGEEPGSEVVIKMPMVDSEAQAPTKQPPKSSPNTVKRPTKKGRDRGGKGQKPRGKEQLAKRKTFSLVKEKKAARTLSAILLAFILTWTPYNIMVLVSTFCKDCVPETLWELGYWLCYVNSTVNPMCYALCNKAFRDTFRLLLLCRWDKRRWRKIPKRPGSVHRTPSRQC
The assay can be described thus: affinity for the M1-type muscarinic cholinergic receptor ([3H]-pirenzepine displacement, rat hippocampus homogenate). Format: binding. Conditions: for IC50: [3H]-PZ 1 nM, rat hippocampus homogenate, 2 h at 4° C., pH 7.40; for r = (M2/M1): ratio of the IC50 values for M2 (3H-NMS) and M1 (3H-pirenzepine), selectivity.
Experimental: The interaction of the molecules with the M1 -type muscarinic receptors was studied by in vitro measurement, on a rat hippocampus homogenate, of the displacement of tritiated pirenzepine ([^3 H]-PZ) from its specific binding sites. Aliquots (10 μl) of a 5% (w/v) rat hippocampus homogenate in an Na2 HPO4 buffer (50 mM, pH 7.40) are incubated for 2 h at 4° C. in the presence of [^3 H]-PZ (76 Ci/nmol; final concentration 1 nM) and increasing concentrations of the test product. The final volume is 2 ml. The reaction is stopped by centrifugation for 10 min at 50 000×g. After decantation and washing of the residues, the bound radio-activity is counted by liquid scintillation. The non-specific binding is determined in the presence of 10 μM atropine sulfate. The 50% inhibitory concentration (IC50) is determined graphically.

As to `c1ccc(-c2ccc3nc(CN4CCOCC4)cn3n2)cc1` [SR 95842 A], in assay [1], it took a dose of 3 mg/kg to reach the 50% effect level (ED50).

For `Cc1cc(-c2ccccc2)nn2c(CN3CCOCC3)cnc12.Cl.Cl` [SR 95950 A, 8-Methyl-3-morpholinomethyl-6-phenylimidazo[1,2-b]pyridazine dihydrochloride], the IC50 (in general, the midpoint of a concentration-inhibition curve) in assay [2] was > 100 µM. In assay [3], the IC50 was determined as 1400 nM and the “r = (M2/M1)” value was > 71. Moreover, the 50% effective dose (ED50) (usually the dose that gives a 50% effect, or the effect in half of the subjects) in assay [1] amounted to 5 mg/kg.

In turn, `CCN(CC)Cc1cn2nc(-c3ccccc3)cc(C)c2n1.Cl.Cl` [SR 96052 A, 2-Diethylaminomethyl-8-methyl-6-phenylimidazo[1,2-b]pyridazine dihydrochloride] returned an IC50 in assay [2] of 65 µM. Besides, in assay [3], the IC50 was found to be 500 nM and the “r = (M2/M1)” value amounted to 130. The ED50 in assay [1] was 8 mg/kg.

In turn, `c1ccc(-c2ccc3ncc(CN4CCOCC4)n3n2)cc1` [SR 96068 A] came in with an ED50 in assay [1] of 10 mg/kg.

Take `CCN(CC)Cc1cn2nc(-c3ccccc3)ccc2n1` [SR 96069 A]: the half-inhibitory concentration (IC50) in assay [2] was 100 µM. In assay [3], the IC50 was determined as 1500 nM and the “r = (M2/M1)” value amounted to 66.

Consider `CN(C)Cc1cnc2ccc(-c3ccccc3)nn12` [SR 96070 A], for which it took a dose of 3 mg/kg to reach the 50% effect level in assay [1] (ED50).

The compound `COc1cccc(-c2cc(C)c3ncc(CN4CCOCC4)n3n2)c1` [SR 96088 A] returned an IC50 in assay [3] of 8000 nM.

For `Clc1ccc(-c2ccc3nc(CN4CCOCC4)cn3n2)cc1` [SR 96089 A], the IC50 in assay [2] was > 100 µM. In addition, in assay [3], the IC50 came to 3000 nM and the “r = (M2/M1)” value is reported as > 33.

In assay [2], `CCN(CC)Cc1cn2nc(-c3cccc(OC)c3)cc(C)c2n1` [SR 96095 A] came in with a half-inhibitory concentration (IC50) of 65 µM. In assay [3], the half-inhibitory concentration (IC50) turned out to be 400 nM and the “r = (M2/M1)” value came to 162. Also, the ED50 in assay [1] was determined as 5 mg/kg.

Regarding `Clc1ccc(-c2ccc3ncc(CN4CCOCC4)n3n2)cc1` [SR 96109 A], the ED50 in assay [1] turned out to be 8 mg/kg.

As to `c1ccc(-c2cc(-c3ccccc3)c3ncc(CN4CCOCC4)n3n2)cc1` [SR 96111 A], the ED50 in assay [1] amounted to 7 mg/kg.
